Experimental data published in ChEMBL document CHEMBL1697821, “Development of a phospholipidosis database and predictive quantitative structure-activity relationship (QSAR) models” (Toxicol Mech Methods, 2008).
*1 amine or outer side, *2 acyl side, *3 side chain or, on linkers, in order; H or OH if unused. Where a SMILES comes first, the peptide text is derived from it. Bridges are numbered along the chain shown (N, C = ends). [ ]: non-standard residue; d: D form. The star is where a group is joined. X1 = NC1=N[C@@H]([C@H](N[*:1])C(=O)[*:2])C[C@H](O)N1; ΔAla(Z-3-ureido) = NC(=O)N/C=C(\N)C(=O)O; β3hOrn = NCCC[C@H](N)CC(=O)*; Dap = NC[C@H](N)C(=O)O

System: Phospholipidosis
Test: Literature-mined public compounds from Kruhlak et al phospholipidosis modelling dataset

## CCC(=O)O[C@](Cc1ccccc1)(c1ccccc1)[C@H](C)CN(C)C [PROPOXYPHENE]
  Phospholipidosis: Negative: based on the absence of positive reported data from WMDD

## CN1CCN(C(c2ccccc2)c2ccccc2)CC1 [CYCLIZINE]
  Phospholipidosis: Positive: strong inducer confirmed by electron microscopy

## CC1=C(/C=C/C(C)=C/C=C/C(C)=C/CO)C(C)(C)CCC1 [RETINOL]
  Phospholipidosis: Negative: based on the absence of positive reported data from WMDD

## CC[C@H]1CN2CCc3cc(OC)c(OC)cc3[C@@H]2C[C@@H]1C[C@H]1NCCc2cc(OC)c(OC)cc21 [EMETINE]
  Phospholipidosis: Positive: weak inducer based on presence of foamy macrophages and cytoplasmic vacuolations

## CCn1cc(C(=O)O)c(=O)c2cc3c(cc21)OCO3 [OXOLINIC ACID]
  Phospholipidosis: Negative: based on the absence of positive reported data from WMDD

## NCC(=O)O [GLYCINE]
  Phospholipidosis: Negative: based on the absence of positive reported data from WMDD

## CC(Cc1ccccc1)NCCC(c1ccccc1)c1ccccc1 (configuration not stated) [PRENYLAMINE]
  Phospholipidosis: Positive: weak inducer based on presence of foamy macrophages and cytoplasmic vacuolations

## CCN(CC)CCSC(=O)C(c1ccccc1)c1ccccc1
  Phospholipidosis: Negative: based on the absence of positive reported data from WMDD

## CC1(C)OCC(C(CS(=O)(=O)c2ccc(Oc3cccc(OC(F)(F)F)c3)cc2)NC=O)O1 (configuration not stated)
  Phospholipidosis: Negative: confirmed by electron microscopy

## CN(C)/C=N/c1c(I)cc(I)c(CCC(=O)O)c1I [IPODATE]
  Phospholipidosis: Negative: based on the absence of positive reported data from WMDD

## CCC1(c2ccccc2)C(=O)NC(=O)NC1=O [PHENOBARBITAL]
  Phospholipidosis: Negative: confirmed by electron microscopy

## NNc1nnc(NN)c2ccccc12 [DIHYDRALAZINE]
  Phospholipidosis: Negative: based on the absence of positive reported data from WMDD

## CC(C)(N)Cc1ccccc1Cl [CLORTERMINE]
  Phospholipidosis: Negative: based on the absence of positive reported data from WMDD

## CCC(=O)Oc1ccc2c(c1)CC[C@@H]1[C@@H]2CC[C@]2(C)[C@@H](OC(=O)CC)CC[C@@H]12 [ESTRADIOL DIPROPIONATE]
  Phospholipidosis: Negative: based on the absence of positive reported data from WMDD

## CCN[C@@H]1C[C@H](N)[C@@H](O[C@H]2OC(CN)=CC[C@H]2N)[C@H](O)[C@H]1O[C@H]1OC[C@](C)(O)[C@H](NC)[C@H]1O [NETILMICIN]
  Phospholipidosis: Positive: strong inducer confirmed by electron microscopy

## C[C@]12C=CC(=O)C=C1CC[C@@H]1[C@@H]2[C@@H](O)C[C@@]2(C)[C@H]1CC[C@]2(O)C(=O)COC(=O)CCC(=O)O [PREDNISOLONE HEMISUCCINATE]
  Phospholipidosis: Negative: based on the absence of positive reported data from WMDD

## CC(=O)OCC(=O)[C@@]1(OC(=O)C(C)C)[C@@H](C)C[C@H]2[C@@H]3CCC4=CC(=O)C=C[C@]4(C)[C@@]3(F)[C@@H](O)C[C@@]21C [BETAMETHASONE ACIBUTATE]
  Phospholipidosis: Negative: based on the absence of positive reported data from WMDD

## Cc1c(-c2ccccc2)oc2c(C(=O)OCCN3CCCCC3)cccc2c1=O [FLAVOXATE]
  Phospholipidosis: Negative: based on the absence of positive reported data from WMDD

## CCCC(CCC)C(=O)O [VALPROIC ACID]
  Phospholipidosis: Negative: confirmed by electron microscopy

## NC[C@H]1O[C@H](O[C@H]2[C@H](O)[C@@H](O[C@H]3O[C@H](CO)[C@@H](O)[C@H](N)[C@H]3O)[C@H](N)C[C@@H]2N)[C@H](O)[C@@H](O)[C@@H]1O [KANAMYCIN A]
  Phospholipidosis: Negative: based on the absence of positive reported data from WMDD

## CCC1(C2=CCCCC2)C(=O)NC(=O)NC1=O [CYCLOBARBITAL]
  Phospholipidosis: Negative: based on the absence of positive reported data from WMDD

## CCOc1ccc(NC(C)=O)cc1 [PHENACETIN]
  Phospholipidosis: Positive: strong inducer confirmed by electron microscopy

## CC[N+]1(C)CCCC(OC(=O)C(O)(c2ccccc2)c2ccccc2)C1.[Br-] (configuration not stated) [PIPENZOLATE BROMIDE]
  Phospholipidosis: Negative: based on the absence of positive reported data from WMDD

## CCCC(=O)c1ccc2c(c1)N(CCCN1CCN(C)CC1)c1ccccc1S2 [BUTAPERAZINE]
  Phospholipidosis: Negative: based on the absence of positive reported data from WMDD

## CC(C)(Oc1ccc(C2CC2(Cl)Cl)cc1)C(=O)O (configuration not stated) [CIPROFIBRATE]
  Phospholipidosis: Negative: confirmed by electron microscopy

## CCCC(CCC)C(=O)O[C@H]1C[C@H]2CC[C@@H](C1)[N+]2(C)C.[Br-] [ANISOTROPINE METHYLBROMIDE]
  Phospholipidosis: Negative: based on the absence of positive reported data from WMDD

## Cc1cc2nc3c(=O)[nH]c(=O)nc-3n(C[C@H](O)[C@H](O)[C@H](O)COP(=O)(O)O)c2cc1C [RIBOFLAVIN 5'-PHOSPHATE]
  Phospholipidosis: Negative: based on the absence of positive reported data from WMDD

## O=C1c2ccccc2C(=O)C1c1ccccc1 [PHENINDIONE]
  Phospholipidosis: Negative: based on the absence of positive reported data from WMDD

## CCCSc1ccc2nc(NC(=O)OC)[nH]c2c1 [ALBENDAZOLE]
  Phospholipidosis: Negative: based on the absence of positive reported data from WMDD

## CC(=O)O.C[C@H]1C[C@@H]2[C@H]([C@@H](O)C[C@@]3(C)[C@H]2CC[C@]3(O)C(=O)CO)[C@@]2(C)C=CC(=O)C=C12
  Phospholipidosis: Negative: based on the absence of positive reported data from WMDD

## O=C(CCCCC(=O)Nc1c(I)cc(I)c(C(=O)O)c1I)Nc1c(I)cc(I)c(C(=O)O)c1I [IODIPAMIDE]
  Phospholipidosis: Negative: based on the absence of positive reported data from WMDD

## Nc1cc(-c2ccncc2)c[nH]c1=O [INAMRINONE]
  Phospholipidosis: Negative: based on the absence of positive reported data from WMDD

## CC(C)(C)NCC(O)COc1ccccc1C#N (configuration not stated) [BUNITROLOL]
  Phospholipidosis: Negative: based on the absence of positive reported data from WMDD

## CN(C/C=C/C#CC(C)(C)C)Cc1cccc2ccccc12 [TERBINAFINE]
  Phospholipidosis: Negative: based on the absence of positive reported data from WMDD

## CC(C)NCC(O)c1ccc(NS(C)(=O)=O)cc1 (configuration not stated) [SOTALOL]
  Phospholipidosis: Negative: confirmed by electron microscopy

## CCC[C@H](N[C@@H](C)C(=O)N1[C@H](C(=O)O)C[C@@H]2CCCC[C@@H]21)C(=O)OCC [PERINDOPRIL]
  Phospholipidosis: Negative: based on the absence of positive reported data from WMDD

## Nc1ccn([C@@H]2CS[C@H](CO)O2)c(=O)n1 [LAMIVUDINE]
  Phospholipidosis: Negative: based on the absence of positive reported data from WMDD

## CCC(c1ccccc1)c1c(O)c2ccccc2oc1=O (configuration not stated) [PHENPROCOUMON]
  Phospholipidosis: Negative: based on the absence of positive reported data from WMDD

## CC(C)[N+](C)(CCC(C(N)=O)(c1ccccc1)c1ccccc1)C(C)C [ISOPROPAMIDE]
  Phospholipidosis: Negative: based on the absence of positive reported data from WMDD

## O=C1CN=C(c2ccccc2)c2cc(Cl)ccc2N1CC(F)(F)F [HALAZEPAM]
  Phospholipidosis: Negative: based on the absence of positive reported data from WMDD

## CS(=O)(=O)c1ccc([C@H](O)[C@@H](COC(=O)CN)NC(=O)C(Cl)Cl)cc1 [THIAMPHENICOL GLYCINATE]
  Phospholipidosis: Negative: based on the absence of positive reported data from WMDD

## OCCN1CCN(CCCN2c3ccccc3Sc3ccc(Cl)cc32)CC1 [PERPHENAZINE]
  Phospholipidosis: Negative: based on the absence of positive reported data from WMDD

## C[C@@H]1C/C=C/C=C/C=C/C=C/[C@H](O[C@@H]2O[C@H](C)[C@@H](O)[C@H](N)[C@@H]2O)C[C@@H]2O[C@](O)(C[C@@H](O)C[C@H]3O[C@@H]3/C=C/C(=O)O1)C[C@H](O)[C@H]2C(=O)O [NATAMYCIN]
  Phospholipidosis: Negative: based on the absence of positive reported data from WMDD

## CC(Oc1ccccc1)C(=O)N[C@@H]1C(=O)N2[C@@H]1SC(C)(C)[C@@H]2C(=O)O (some centres not stated) [PHENETHICILLIN]
  Phospholipidosis: Negative: based on the absence of positive reported data from WMDD

## O=c1[nH]c(=S)[nH]cc1I [IODOTHIOURACIL]
  Phospholipidosis: Negative: based on the absence of positive reported data from WMDD

## NCCC[C@H](N)CC(=O)N[C@H]1CNC(=O)[C@H]([C@H]2C[C@H](O)NC(N)=N2)NC(=O)/C(=C/NC(N)=O)NC(=O)[C@H](CO)NC(=O)[C@H](CO)NC1=O [VIOMYCIN] (β3hOrn-[Dap]SS[ΔAla(Z-3-ureido)][X1]; lactam 1-C)
  Phospholipidosis: Negative: based on the absence of positive reported data from WMDD

## C=CCN1C(=O)C(CC(C)C)NC1=S (configuration not stated) [ALBUTOIN]
  Phospholipidosis: Negative: based on the absence of positive reported data from WMDD

## CC(=O)Nc1c(I)c(C(=O)O)c(I)c(N(C)C(C)=O)c1I [METRIZOIC ACID]
  Phospholipidosis: Negative: based on the absence of positive reported data from WMDD

## CCCN(CC)C(CC)C(=O)Nc1c(C)cccc1C (configuration not stated) [ETIDOCAINE]
  Phospholipidosis: Negative: based on the absence of positive reported data from WMDD

## CCOC(=O)[C@H](CCc1ccccc1)N[C@@H](C)C(=O)N1Cc2ccccc2C[C@H]1C(=O)O
  Phospholipidosis: Negative: based on the absence of positive reported data from WMDD

## CN(C)CCCN1c2ccccc2CCc2ccc(Cl)cc21 [CLOMIPRAMINE]
  Phospholipidosis: Positive: strong inducer confirmed by electron microscopy

## CC(C)NCC(O)COc1cccc2[nH]ccc12 (configuration not stated) [PINDOLOL]
  Phospholipidosis: Negative: based on the absence of positive reported data from WMDD

## NNc1nncc2ccccc12 [HYDRALAZINE]
  Phospholipidosis: Negative: based on the absence of positive reported data from WMDD

## CCc1cc2c(s1)-n1c(C)nnc1CN=C2c1ccccc1Cl [ETIZOLAM]
  Phospholipidosis: Negative: based on the absence of positive reported data from WMDD

## CN(C)CCCN1c2ccccc2Sc2ccc(Cl)cc21 [CHLORPROMAZINE]
  Phospholipidosis: Positive: strong inducer confirmed by electron microscopy

## CN1CCCN(C(c2ccccc2)c2ccc(Cl)cc2)CC1 (configuration not stated) [HOMOCHLORCYCLIZINE]
  Phospholipidosis: Positive: strong inducer confirmed by electron microscopy

## CC(=O)O[C@]1(C(C)=O)CC[C@H]2[C@@H]3C=C(Cl)C4=CC(=O)CC[C@]4(C)[C@H]3CC[C@@]21C [CHLORMADINONE ACETATE]
  Phospholipidosis: Negative: based on the absence of positive reported data from WMDD
